Measured values from patent publication US8314098B2, “Pyrazolo-pyrimidine compounds” (Ajinomoto Co., Inc., priority 2008, dated 2012).

Assays:
[1] = test system: IL-12p40; experiment: IL-12p40 production inhibition in macrophages derived from mouse abdomen (IFN-γ/SAC stimulation, ELISA); assay type: cell-based; conditions: Macrophage; mouse (Balb/c) abdominal macrophages, 100 ng/mL mouse IFN-γ + 0.05% SAC, overnight
Experimental: (§1) One milliliter each of a 3% (w/v) thioglycolate solution was intraperitoneally administered to mice (female Balb/c mice), the abdominal cells of each mouse were recovered after 5 or 6 days from the administration of the thioglycolate solution and the adhesive cells were collected and used in the exaluation procedures. To a culture medium containing such adhesive cells, there were added 100 ng/mL of mouse interferon-γ and a 0.05% (v/v) liquid containing killed cells derived from Staphylococcus aureus Cowan I strain (SAC) and a candidate compound and then the mixture was cultivated overnight. After the completion of the cultivation, the survival ratios were determined, there were quantitatively determined the quantities of IL-12p70 (the complex of IL-12p35 and p40) and IL-12p40 or TNF-α according to the ELISA assays while making use of the recovered supernatant of the culture medium and the 50% production-inhibitory concentration (IC50) was calculated for each case (see Table 1 and Tables 1-9 for IL-12p70 and TNF-α and Tables 1 to 10 for IL-12p40).

[2] = test system: IL-12p70 (the complex of IL-12p35 and p40); experiment: IL-12p70 production inhibition in macrophages derived from mouse abdomen (IFN-γ/SAC stimulation, ELISA); assay type: cell-based; conditions: Macrophage; mouse (Balb/c) abdominal macrophages, 100 ng/mL mouse IFN-γ + 0.05% SAC, overnight; TFA salts tested where prepared as such; read-out: IL-12p70-Inhibitory Activity IC50
Summary of the method: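 Thioglycolate-elicited adherent peritoneal macrophages from female Balb/c mice were collected 5–6 days after dosing. Cells were stimulated overnight with 100 ng/mL mouse IFN-γ plus 0.05% (v/v) killed S. aureus Cowan I, with compound present. IL-12p70, IL-12p40 and TNF-α in supernatants were measured by ELISA and IC50s derived, with cell survival also checked.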

[3] = test system: IL-12p70 (the complex of IL-12p35 and p40); experiment: IL-12p70 production inhibition in whole blood of mouse (IFN-γ/SAC stimulation, ELISA); assay type: cell-based; conditions: mouse (Balb/c) whole blood, EDTA, 100 ng/mL mouse IFN-γ + 1.25% SAC, overnight; TFA salts tested where prepared as such
Experimental: The blood was recovered from the mice (female Balb/c mice) (containing added EDTA) and it was used for the evaluation. To a cell culture medium, there were added 100 ng/mL of mouse interferon-γ, 1.25% (v/v) of a liquid containing killed cells derived from Staphylococcus aureus Cowan I strain (SAC) and a candidate compound, the resulting mixture was diluted to a volume equivalent to the blood and then the diluted medium was cultivated overnight. After the completion of the cultivation, the amount of IL-12p70 (the complex of IL-12p35 and p40) was quantitatively determined according to the ELISA assays while making use of the recovered supernatant of the culture medium and the 50% production-inhibitory concentrations (IC50) were calculated for Compounds 38, 80, 82, 83, 84, 85, 87, 90 and 91. (see Table 3).

[4] = test system: TNF-α; experiment: TNF-α production inhibition in macrophages derived from mouse abdomen (IFN-γ/SAC stimulation, ELISA); assay type: cell-based; conditions: Macrophage; mouse (Balb/c) abdominal macrophages, 100 ng/mL mouse IFN-γ + 0.05% SAC, overnight; TFA salts tested where prepared as such; read-out: TNF-α-Inhibitory Activity IC50
Experimental: as §1

[5] = test system: mouse enteritis model; experiment: Inflammation-inhibitory action in mouse enteritis model (immigration of IL-10-/- cells), weight of large intestine; assay type: in vivo
Description: The method for establishing the mouse enteritis model by the immigration of IL-10−/−cells is, for instance, disclosed in Gastroenterology. 2009 February; 136(2): 564-74.e2. Epub 2008 Oct. 7.
The following method was used for the determination of the weight of intestinal tract as an indication of the drug efficacy: On the final day of the autopsy, the large intestine extending from the anus to immediately before the blind gut was surgically excised, the contents of the intestinal tract were washed away with physiological saline, the moisture adhered thereto was roughly removed and then the weight thereof was determined.
The inflammation-inhibitory effect of Compound 1 on the mouse enteritis model was evaluated using this evaluation system and the results obtained were plotted on FIG. 1.

Compound	IC50 [1] [nM]	IC50 [2] [nM]	IC50 [3] [nM]	IC50 [4] [nM]	control effect on weight of the large intestine ([5]; mouse enteritis model, 30 mg/kg once a day)	weight of the large intestine increased due to the immigration of IL-10-/- cells ([5]; mouse enteritis model, 3, 10, 30 mg/kg, FIG. 1)
Cc1cccc(/C=N/Nc2cc(N3CCOCC3)n3nc(-c4ccncn4)cc3n2)c1 [Compound 119, N-(3-methyl-benzylidene)-N-(7-morpholin-4-yl-2-pyrimidin-4-yl-pyrazolo[1,5-a]pyrimidin-5-yl)-hydrazine]	70	47	1000			
Cc1cccc(/C=N/Nc2cc(N3CCOCC3)n3nc(-c4ccc(N5CCOCC5)nc4)cc3n2)c1 [Compound 85, N-(3-methyl-benzylidene)-N′-[7-morpholin-4-yl-2-(6-morpholin-4-yl-pyridin-3-yl)-pyrazolo[1,5-a]pyrimidin-5-yl]-hydrazine]		3.2	4200	> 10000		
C(=N\Nc1cc(N2CCOCC2)n2nc(-c3ccncc3)cc2n1)/c1c[nH]c2ccccc12 [Compound 84, N-(1H-indol-3-yl-methylidene)-N′-(7-morpholin-4-yl-2-pyridin-4-yl-pyrazolo[1,5-a]pyrimidin-5-yl)-hydrazine]		3.2	2300	> 10000		
C(=N\Nc1cc(N2CCOCC2)n2nc(-c3cccnc3)cc2n1)/c1c[nH]c2ccccc12 [Compound 82, N-(1H-indol-3-yl-methylidene)-N′-(7-morpholin-4-yl-2-pyridin-3-yl-pyrazolo[1,5-a]pyrimidin-5-yl)-hydrazine]		4.1	3200	> 10000		
C(=N\Nc1cc(N2CCOCC2)n2nc(-c3ccncc3)cc2n1)/c1ccc2cc[nH]c2c1 [Compound 117, N-(1H-indol-6-yl-methylidene)-N′-(7-morpholin-4-yl-2-pyridin-4-yl-pyrazolo[1,5-a]pyrimidin-5-yl)-hydrazine]	97.8	56	280			
Cc1cccc(/C=N/Nc2cc(N3CCOCC3)n3nc(-c4ccncc4)cc3n2)c1 [Compound 83, N-(3-methyl-benzylidene)-N′-(7-morpholin-4-yl-2-pyridin-4-yl-pyrazolo[1,5-a]pyrimidin-5-yl)-hydrazine]	11.3	8.4	880	> 10000	significant control effect	controlled in a dose of Compound 83-dependent manner
C(=N\Nc1cc(N2CCOCC2)n2nc(-c3ccncc3)cc2n1)/c1c[nH]c2ncccc12 [Compound 126, N-(7-morpholin-4-yl-2-pyridin-4-yl-pyrazolo[1,5-a]-pyrimidin-5-yl)-N′-(1H-pyrrolo[2,3-b]pyridin-3-yl-methylidene)-hydrazine]		110	760			
Cc1cccc(/C=N/Nc2cc(N3CC4C[C@H]3CO4)n3nc(-c4ccncc4)cc3n2)c1 [Compound 121, N-(3-methyl-benzylidene)-N′-[7-(2-oxo-5-azabicyclo-[2.2.1]hept-5-yl)-2-pyridin-4-yl-pyrazolo[1,5-a]pyrimidin-5-yl]-hydrazine]	150	79	840			
CCc1cccc(/C=N/Nc2cc(N3CCOCC3)n3nc(-c4ccncc4)cc3n2)c1 [Compound 118, N-(3-ethyl-benzylidene)-N-(7-morpholin-4-yl-2-pyridin-4-yl-pyrazolo[1,5-a]pyrimidin-5-yl)-hydrazine]		29	640			
Cc1cccc(/C=N/Nc2cc(N3CCOCC3)n3nc(-c4ccnnc4)cc3n2)c1 [Compound 94, N-(3-methyl-benzylidene)-N-(7-morpholin-4-yl-2-pyridazin-4-yl-pyrazolo[1,5-a]pyrimidin-5-yl)-hydrazine]		18	1000			
Cc1cccc(/C=N/Nc2cc(N3CC4COCC4C3)n3nc(-c4ccncc4)cc3n2)c1 (centres unmarked) [Compound 123, N-(3-methyl-benzylidene)-N′-[2-pyridin-4-yl-7-(tetrahydro-furo[3,4-c]pyrrol-5-yl)-pyrazolo[1,5-a]pyrimidin-5-yl]-hydrazine]		300	440			
Cc1cccc(/C=N/Nc2cc(N3CCOCC3)n3nc(-c4cccnc4)cc3n2)c1 [Compound 38, N-(3-methyl-benzylidene)-N′-(7-morpholin-4-yl-2-pyridin-3-yl-pyrazolo[1,5-a]pyrimidin-5-yl)-hydrazine]		11	2700	> 10000		
C(=N\Nc1cc(N2CCOCC2)n2nc(-c3ccncc3)cc2n1)/c1ccsc1 [Compound 91, N-(7-morpholin-4-yl-2-pyridin-4-yl-pyrazolo[1,5-a]-pyrimidin-5-yl)-N′-thiophen-3-yl-methylidene-hydrazine]		48	4600			
C(=N\Nc1cc(N2CCOCC2)n2nc(N3CCOCC3)cc2n1)/c1c[nH]c2ccccc12 [Compound 128, N-(1H-indol-3-yl-methylidene)-N-(2,7-di-morpholin-4-yl-pyrazolo[1,5-a]pyrimidin-5-yl)-hydrazine]		140	4600			
Cc1cccc(/C=N/Nc2cc(N3CCOCC3)n3nccc3n2)c1 [Compound 9, N-(3-methyl-benzylidene)-N′-(7-morpholin-4-yl-pyrazolo-[1,5-a]pyrimidin-5-yl)-hydrazine]	136	141		> 10000		
C(=N\Nc1cc(N2CCOCC2)n2nc(-c3ccncc3)cc2n1)/c1ccnc2ccccc12 [Compound 122, N-(7-morpholin-4-yl-2-pyridin-4-yl-pyrazolo[1,5-a]-pyrimidin-5-yl)-N′-quinolin-4-yl-methylidene-hydrazine]		5.6	2400			
Cc1cc2nc(N/N=C/c3c[nH]c4ccccc34)cc(N3CCOCC3)n2n1 [Compound 80, N-(1H-indol-3-yl-methylidene)-N′-(2-methyl-7-morpholin-4-yl-pyrazolo[1,5-a]pyrimidin-5-yl)-hydrazine]		160	4900	> 10000		
